# Measurements taken from patent publication US8901118B2, “Compounds and methods for kinase modulation, and indications therefor” (Plexxikon Inc., priority 2010, dated 2014).
# pIC50: −log10 of the molar value.
# Legend:
# CYP2D6 = CYP2D6 (Homo sapiens, UniProt P10635); experiment: CYP2D6 inhibition (fluorescent substrate AMMC); type: in vitro ADME; conditions: read-out: Cyp IC50 2D6
# Summary of the method: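 Test compound titrated 1:1 across ten concentrations; metabolite fluorescence measured after 37 °C incubation of 15 min (CYP1A2), 30 min (CYP2C19, CYP2D6) or 45 min (CYP2C9). IC50 from signal versus concentration.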
# Fms kinase = Fms kinase (Homo sapiens, UniProt P07333); experiment: Fms kinase biochemical activity assay (AlphaScreen, biotin-(E4Y)10 phosphorylation); conditions: 100 μM ATP; read-out: Biochemical Inhibition IC50 Fms
# Summary of the method: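 AlphaScreen read-out (PY20 acceptor, streptavidin donor beads, EDTA stop) of biotin-(E4Y)10 phosphorylation, with IC50 taken from the concentration–signal curve. Reaction: 30 nM substrate, 100 μM ATP, 1 ng/well Fms, Hepes pH 7.5 with Mg2+/Mn2+, 5% DMSO, 20 min at 30 °C.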
# Chain of CYP2D6 (P10635 whole entry): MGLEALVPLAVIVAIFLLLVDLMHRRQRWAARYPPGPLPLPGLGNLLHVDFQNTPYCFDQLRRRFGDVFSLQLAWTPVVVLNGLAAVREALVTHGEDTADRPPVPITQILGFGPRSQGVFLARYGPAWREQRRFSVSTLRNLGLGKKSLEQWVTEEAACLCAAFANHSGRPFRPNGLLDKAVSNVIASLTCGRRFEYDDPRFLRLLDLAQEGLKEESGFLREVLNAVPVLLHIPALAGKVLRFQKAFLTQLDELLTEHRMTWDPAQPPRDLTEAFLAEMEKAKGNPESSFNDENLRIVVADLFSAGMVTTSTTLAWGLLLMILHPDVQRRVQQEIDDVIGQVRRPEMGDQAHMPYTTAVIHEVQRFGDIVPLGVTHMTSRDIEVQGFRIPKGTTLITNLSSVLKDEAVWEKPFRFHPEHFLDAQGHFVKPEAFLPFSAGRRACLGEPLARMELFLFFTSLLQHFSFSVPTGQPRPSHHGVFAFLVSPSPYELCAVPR
# Chain of Fms kinase (P07333 20-972): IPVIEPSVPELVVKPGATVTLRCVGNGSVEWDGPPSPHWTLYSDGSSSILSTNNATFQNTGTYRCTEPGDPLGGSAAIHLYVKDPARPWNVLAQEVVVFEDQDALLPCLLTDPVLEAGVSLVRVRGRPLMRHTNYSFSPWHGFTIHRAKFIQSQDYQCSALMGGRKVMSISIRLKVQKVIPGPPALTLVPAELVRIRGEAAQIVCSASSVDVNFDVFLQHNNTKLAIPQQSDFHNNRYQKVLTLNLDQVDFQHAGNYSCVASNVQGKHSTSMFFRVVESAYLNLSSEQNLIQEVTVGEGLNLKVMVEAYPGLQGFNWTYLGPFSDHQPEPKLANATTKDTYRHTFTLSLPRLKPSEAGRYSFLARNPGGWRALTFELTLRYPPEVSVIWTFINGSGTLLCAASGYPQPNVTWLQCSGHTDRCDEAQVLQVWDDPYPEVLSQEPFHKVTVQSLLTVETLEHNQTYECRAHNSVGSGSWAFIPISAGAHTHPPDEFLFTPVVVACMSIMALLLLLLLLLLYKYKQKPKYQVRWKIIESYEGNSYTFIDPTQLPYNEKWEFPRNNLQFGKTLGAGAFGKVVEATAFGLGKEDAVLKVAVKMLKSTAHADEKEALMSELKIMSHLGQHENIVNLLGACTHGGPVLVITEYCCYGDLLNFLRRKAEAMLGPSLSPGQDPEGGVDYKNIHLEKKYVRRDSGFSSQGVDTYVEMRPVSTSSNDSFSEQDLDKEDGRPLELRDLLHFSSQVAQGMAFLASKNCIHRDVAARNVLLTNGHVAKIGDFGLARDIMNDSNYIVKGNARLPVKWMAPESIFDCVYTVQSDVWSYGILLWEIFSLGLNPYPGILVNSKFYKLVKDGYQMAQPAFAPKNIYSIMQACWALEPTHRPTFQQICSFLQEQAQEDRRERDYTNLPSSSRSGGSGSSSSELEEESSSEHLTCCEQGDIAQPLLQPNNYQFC
pIC50 (CYP2D6),pIC50 (Fms kinase),Structure (SMILES)
< 5.00,> 8.00,"CCOc1ccc(Nc2ccc(Cc3c[nH]c4ncc(C)cc34)c(F)n2)cn1 [Compound P-3039, (6-ethoxy-pyridin-3-yl)-[6-fluoro-5-(5-methyl-1H-pyrrolo[2,3-b]pyridin-3-ylmethyl)-pyridin-2-yl]-amine]"
< 5.00,> 8.00,"COc1ccc(Nc2ccc(Cc3c[nH]c4ncnc(OC)c34)c(F)n2)cn1 [Compound P-4001, [6-Fluoro-5-(4-methoxy-7H-pyrrolo[2,3-d]pyrimidin-5-ylmethyl)-pyridin-2-yl]-(6-methoxy-pyridin-3-yl)-amine]"
< 5.00,> 7.00,"COc1ccc(Nc2ccc(Cc3c[nH]c4ncnc(C)c34)c(F)n2)cn1 [Compound P-4002, [6-Fluoro-5-(4-methyl-7H-pyrrolo[2,3-d]pyrimidin-5-ylmethyl)-pyridin-2-yl]-(6-methoxy-pyridin-3-yl)-amine]"
< 5.00,> 7.00,"COc1ncnc2[nH]cc(Cc3ccc(Nc4ccc(Cl)nc4)nc3F)c12 [Compound P-4003, (6-Chloro-pyridin-3-yl)-[6-fluoro-5-(4-methoxy-7H-pyrrolo[2,3-d]pyrimidin-5-ylmethyl)-pyridin-2-yl]-amine]"
< 5.00,> 7.00,"COc1ncnc2[nH]cc(Cc3ccc(Nc4ccc(C5CC5)nc4)nc3F)c12 [Compound P-4004, (6-Cyclopropyl-pyridin-3-yl)-[6-fluoro-5-(4-methoxy-7H-pyrrolo[2,3-d]pyrimidin-5-ylmethyl)-pyridin-2-yl]-amine]"
< 5.00,> 8.00,"CCOc1ccc(Nc2ccc(Cc3c[nH]c4ncnc(OC)c34)c(F)n2)cn1 [Compound P-4005, (6-Ethoxy-pyridin-3-yl)-[6-fluoro-5-(4-methoxy-7H-pyrrolo[2,3-d]pyrimidin-5-ylmethyl)-pyridin-2-yl]-amine]"
< 5.00,> 8.00,"CCOc1ccc(Nc2ccc(Cc3c[nH]c4ncnc(C)c34)c(F)n2)cn1 [Compound P-4006, (6-Ethoxy-pyridin-3-yl)-[6-fluoro-5-(4-methyl-7H-pyrrolo[2,3-d]pyrimidin-5-ylmethyl)-pyridin-2-yl]-amine]"
< 5.00,> 8.00,"CCc1ccc(Nc2ccc(Cc3c[nH]c4ncnc(OC)c34)c(F)n2)cn1 [Compound P-4007, (6-Ethyl-pyridin-3-yl)-[6-fluoro-5-(4-methoxy-7H-pyrrolo[2,3-d]pyrimidin-5-ylmethyl)-pyridin-2-yl]-amine]"
< 5.00,> 8.00,"CCOc1ccc(Nc2ccc(Cc3c[nH]c4ncnc(OCCOC)c34)c(F)n2)cn1 [Compound P-4008, (6-Ethoxy-pyridin-3-yl)-{6-fluoro-5-[4-(2-methoxy-ethoxy)-7H-pyrrolo[2,3-d]pyrimidin-5-ylmethyl]-pyridin-2-yl}-amine]"
< 5.00,> 8.00,"CCc1ccc(Nc2ccc(Cc3c[nH]c4ncnc(C)c34)c(F)n2)cn1 [Compound P-4009, (6-Ethyl-pyridin-3-yl)-[6-fluoro-5-(4-methyl-7H-pyrrolo[2,3-d]pyrimidin-5-ylmethyl)-pyridin-2-yl]-amine]"
< 5.00,> 8.00,"COc1ncnc2[nH]cc(Cc3ccc(Nc4ccc(C)nc4)nc3F)c12 [Compound P-4010, [6-Fluoro-5-(4-methoxy-7H-pyrrolo[2,3-d]pyrimidin-5-ylmethyl)-pyridin-2-yl]-(6-methyl-pyridin-3-yl)-amine]"

# The next lines start with the compound.
Structure (SMILES),pIC50 (CYP2D6),pIC50 (Fms kinase)
"Cc1cnc2[nH]cc(Cc3cnc(Nc4ccc(C(F)(F)F)nc4)nc3)c2c1 [Compound P-3018, [5-(5-Methyl-1H-pyrrolo[2,3-b]pyridin-3-ylmethyl)-pyrimidin-2-yl]-(6-trifluoromethyl-pyridin-3-yl)-amine]",< 5.00,> 8.00
"COc1ccc(Nc2ccc(Cc3c[nH]c4ncc(C)cc34)c(F)n2)cn1 [Compound P-3019, [6-fluoro-5-(5-methyl-1H-pyrrolo[2,3-b]pyridin-3-ylmethyl)-pyridin-2-yl]-(6-methoxy-pyridin-3-yl)-amine]",< 5.00,> 8.00
"COc1ccc(Nc2ccc(C(=O)c3c[nH]c4ncc(C)cc34)c(F)n2)cn1 [Compound P-3040, [2-Fluoro-6-(6-methoxy-pyridin-3-ylamino)-pyridin-3-yl]-(5-methyl-1H-pyrrolo[2,3-b]pyridin-3-yl)-methanone]",< 5.00,> 7.00
"Cc1cnc2[nH]cc(Cc3ccc(Nc4ccc(C)nc4)nc3F)c2c1 [Compound P-3041, [6-Fluoro-5-(5-methyl-1H-pyrrolo[2,3-b]pyridin-3-ylmethyl)-pyridin-2-yl]-(6-methyl-pyridin-3-yl)-amine]",< 5.00,> 8.00
"Cc1cnc2[nH]cc(C(=O)c3ccc(Nc4ccc(C)nc4)nc3F)c2c1 [Compound P-3043, [2-Fluoro-6-(6-methyl-pyridin-3-ylamino)-pyridin-3-yl]-(5-methyl-1H-pyrrolo[2,3-b]pyridin-3-yl)-methanone]",< 5.00,> 8.00
"Cc1ccc(Nc2ccc(C(=O)c3c[nH]c4ncc(Cl)cc34)c(F)n2)cn1 [Compound P-3044, (5-Chloro-1H-pyrrolo[2,3-b]pyridin-3-yl)-[2-fluoro-6-(6-methyl-pyridin-3-ylamino)-pyridin-3-yl]-methanone]",< 5.00,> 8.00
"CCc1ccc(Nc2ccc(Cc3c[nH]c4ncc(C)cc34)c(F)n2)cn1 [Compound P-3048, (6-Ethyl-pyridin-3-yl)-[6-fluoro-5-(5-methyl-1H-pyrrolo[2,3-b]pyridin-3-ylmethyl)-pyridin-2-yl]-amine]",< 5.00,> 8.00
"CCc1ccc(Nc2ccc(C(=O)c3c[nH]c4ncc(C)cc34)c(F)n2)cn1 [Compound P-3049, [6-(6-Ethyl-pyridin-3-ylamino)-2-fluoro-pyridin-3-yl]-(5-methyl-1H-pyrrolo[2,3-b]pyridin-3-yl)-methanone]",< 5.00,> 8.00
"Cc1cnc2[nH]cc(Cc3ccc(Nc4ccc(C5CC5)nc4)nc3F)c2c1 [Compound P-3050, (6-Cyclopropyl-pyridin-3-yl)-[6-fluoro-5-(5-methyl-1H-pyrrolo[2,3-b]pyridin-3-ylmethyl)-pyridin-2-yl]-amine]",< 5.00,> 7.00
"Cc1cnc2[nH]cc(C(=O)c3ccc(Nc4ccc(C5CC5)nc4)nc3F)c2c1 [Compound P-3051, [6-(6-Cyclopropyl-pyridin-3-ylamino)-2-fluoro-pyridin-3-yl]-(5-methyl-1H-pyrrolo[2,3-b]pyridin-3-yl)-methanone]",< 5.00,> 8.00
"O=C(c1ccc(Nc2ccc(C3CC3)nc2)nc1F)c1c[nH]c2ncccc12 [Compound P-3052, [6-(6-Cyclopropyl-pyridin-3-ylamino)-2-fluoro-pyridin-3-yl]-(1H-pyrrolo[2,3-b]pyridin-3-yl)-methanone]",< 5.00,> 7.00
"Fc1nc(Nc2ccc(C3CC3)nc2)ccc1Cc1c[nH]c2ncccc12 [Compound P-3053, (6-Cyclopropyl-pyridin-3-yl)-[6-fluoro-5-(1H-pyrrolo[2,3-b]pyridin-3-ylmethyl)-pyridin-2-yl]-amine]",< 5.00,> 8.00
"CCn1cc(Nc2ccc(Cc3c[nH]c4ncnc(OC)c34)c(F)n2)cn1 [Compound P-4011, (1-Ethyl-1H-pyrazol-4-yl)-[6-fluoro-5-(4-methoxy-7H-pyrrolo[2,3-d]pyrimidin-5-ylmethyl)-pyridin-2-yl]-amine]",< 5.00,> 8.00
